Holding throughout (format): cell-based
In test [1] the test system is Acinetobacter baumanii/haemolyticus: Multidrug-resistant clinical isolate (AB-3167). In words: MIC determination (CLSI), strain AB-3167. To be noted: unit assumed. The gist of the method: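 Using the multidrug-resistant Acinetobacter baumanii/haemolyticus clinical isolate AB-3167, minimum inhibitory concentrations were determined following CLSI dilution susceptibility standards.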

The subject of test [2] is Pseudomonas aeruginosa UI-18: Wild-type (PA-7). In words: MIC determination (CLSI), strain PA-7. To be noted: Pseudomonas aeruginosa UI-18, wild-type; unit assumed. In short, it runs like this: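 Strain tested was P. aeruginosa UI-18, a wild-type isolate labelled PA-7. Minimum inhibitory concentrations followed CLSI dilution methodology for aerobically growing bacteria (M7-A7, M100-S18).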

The test system of test [3] is Escherichia coli EC-1: VOGEL, mouse virulent. In words: MIC determination (CLSI), strain EC-1. To be noted: Escherichia coli EC-1, VOGEL, mouse virulent; unit assumed. The gist of the method: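 The mouse-virulent VOGEL isolate of E. coli, EC-1, served as test organism. Minimum inhibitory concentration was measured by CLSI dilution methodology (M7-A7; M100-S18 standards).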

The structures appear in SMILES notation.

Consider `COCCSc1ccc(-c2ccn(CC[C@](C)(C(=O)NO)S(C)(=O)=O)c(=O)c2)cc1` [Example 48, (2R)-N-hydroxy-4-[4-{4-[(2-methoxyethyl)thio]phenyl}-2-oxopyridin-1(2H)-yl]-2-methyl-2-(methylsulfonyl)butanamide], for which, in test [1], the AB-3167 (MIC) was > 64 µg/mL. The compound also came in with a PA-7 (MIC) in test [2] of 1 µg/mL. For the same compound, the EC-1 (MIC) in test [3] worked out at 0.25 µg/mL.
Take `C[C@@](CCn1ccc(-c2ccc(Cl)c(F)c2F)cc1=O)(C(=O)NO)S(C)(=O)=O` [Example 49, (2R)-4-[4-(4-chloro-2,3-difluorophenyl)-2-oxopyridin-1(2H)-yl]-N-hydroxy-2-methyl-2-(methylsulfonyl)butanamide]: the AB-3167 (MIC) in test [1] is > 64 µg/mL. This compound also came in with a PA-7 (MIC) in test [2] of 0.25 µg/mL. Moreover, the EC-1 (MIC) in test [3] worked out at 0.125 µg/mL.
With `C[C@@](CCn1ccc(-c2ccc(F)c(F)c2F)cc1=O)(C(=O)NO)S(C)(=O)=O` [Example 50, (2R)-N-hydroxy-2-methyl-2-(methylsulfonyl)-4-[2-oxo-4-(2,3,4-trifluorophenyl)pyridin-1(2H)-yl]butanamide], in test [1], the AB-3167 (MIC) was determined as 64 µg/mL. This compound displayed a PA-7 (MIC) in test [2] of 0.5 µg/mL. The EC-1 (MIC) in test [3] was 0.5 µg/mL.
On to `CC(CCn1ccc(OCc2ccccc2)cc1=O)(C(=O)NO)S(C)(=O)=O` (stereo not drawn) [Example 51, 4-[4-(Benzyloxy)-2-oxopyridin-1(2H)-yl]-N-hydroxy-2-methyl-2-(methylsulfonyl)butanamide], for which, in test [1], the AB-3167 (MIC) is > 64 µg/mL. For the same compound, in test [2], the PA-7 (MIC) turned out to be 16 µg/mL. Moreover, the EC-1 (MIC) in test [3] turned out to be 16 µg/mL.
As for `Cc1c(-c2ccccc2)ccn(CCC(C)(C(=O)NO)S(C)(=O)=O)c1=O` (stereo not drawn) [Example 52, N-Hydroxy-2-methyl-4-(3-methyl-2-oxo-4-phenylpyridin-1(2H)-yl)-2-(methylsulfonyl)butanamide], the AB-3167 (MIC) in test [1] is > 64 µg/mL. Besides, in test [2], the PA-7 (MIC) amounted to 4 µg/mL. In test [3], the EC-1 (MIC) amounted to 2 µg/mL.
Take `CC(CCn1ccc(C2CCCCC2)cc1=O)(C(=O)NO)S(C)(=O)=O` (stereo not drawn) [Example 53, 4-(4-Cyclohexyl-2-oxopyridin-1(2H)-yl)-N-hydroxy-2-methyl-2-(methylsulfonyl)butanamide]: in test [1], the AB-3167 (MIC) is > 64 µg/mL. In test [2], this compound displayed a PA-7 (MIC) of 8 µg/mL. The EC-1 (MIC) in test [3] came out at 16 µg/mL.
As for `CCC(CCn1ccc(-c2ccccc2)cc1=O)(C(=O)NO)S(C)(=O)=O` (stereo not drawn) [Example 54, 2-Ethyl-N-hydroxy-2-(methylsulfonyl)-4-(2-oxo-4-phenylpyridin-1(2H)-yl)butanamide], the AB-3167 (MIC) in test [1] worked out at 64 µg/mL. In addition, the PA-7 (MIC) in test [2] came out at 16 µg/mL. In test [3], this compound had an EC-1 (MIC) of 16 µg/mL.
For the compound `C[C@@](CCn1ccc(-c2ccccc2)c(F)c1=O)(C(=O)NO)S(C)(=O)=O` [Example 55, (2R)-4-(3-fluoro-2-oxo-4-phenylpyridin-1(2H)-yl)-N-hydroxy-2-methyl-2-(methylsulfonyl)butanamide], in test [1], the AB-3167 (MIC) was > 64 µg/mL. In test [2], the PA-7 (MIC) worked out at 1 µg/mL. Besides, the EC-1 (MIC) in test [3] worked out at 8 µg/mL.
Turning to `C[C@@](CCn1cc(F)c(-c2ccccc2)cc1=O)(C(=O)NO)S(C)(=O)=O` [Example 56, (2R)-4-(5-fluoro-2-oxo-4-phenylpyridin-1(2H)-yl)-N-hydroxy-2-methyl-2-(methylsulfonyl)butanamide], the AB-3167 (MIC) in test [1] is > 64 µg/mL. This compound also yielded a PA-7 (MIC) in test [2] of 1 µg/mL. Moreover, the EC-1 (MIC) in test [3] was found to be 4 µg/mL.
`CCS(=O)(=O)C(C)(CCn1ccc(-c2ccccc2)cc1=O)C(=O)NO` (stereo not drawn) [Example 57, 2-(ethylsulfonyl)-N-hydroxy-2-methyl-4-(2-oxo-4-phenylpyridin-1(2H)-yl)butanamide]: the AB-3167 (MIC) in test [1] came out at 16 µg/mL. In addition, the PA-7 (MIC) in test [2] worked out at 64 µg/mL. This compound showed an EC-1 (MIC) in test [3] of 8 µg/mL.
`COc1cnn(-c2ccc(-c3ccn(CC[C@](C)(C(=O)NO)S(C)(=O)=O)c(=O)c3)cc2)n1` [Example 58, (2R)-N-hydroxy-4-{4-[4-(4-methoxy-2H-1,2,3-triazol-2-yl)phenyl]-2-oxopyridin-1(2H)-yl}-2-methyl-2-(methylsulfonyl)butanamide]: the AB-3167 (MIC) in test [1] is > 64 µg/mL. Further, the PA-7 (MIC) in test [2] turned out to be 0.5 µg/mL. This compound registered an EC-1 (MIC) in test [3] of 0.03 µg/mL.
For the compound `COc1ccc(COc2ccc(-c3ccn(CC[C@](C)(C(=O)NO)S(C)(=O)=O)c(=O)c3)cc2)cn1` [Example 59, (2R)-N-hydroxy-4-[4-{4-[(6-methoxypyridin-3-yl)methoxy]phenyl}-2-oxopyridin-1(2H)-yl]-2-methyl-2-(methylsulfonyl)butanamide], the AB-3167 (MIC) in test [1] was > 64 µg/mL. In addition, the PA-7 (MIC) in test [2] worked out at 1 µg/mL. This compound registered an EC-1 (MIC) in test [3] of 0.25 µg/mL.
Turning to `C[C@@](CCn1ccc(-c2ccc(OC(F)(F)[C@H]3CC[C@H](O)CC3)cc2)cc1=O)(C(=O)NO)S(C)(=O)=O` [Example 60, (2R)-4-[4-{4-[difluoro(trans-4-hydroxycyclohexyl)methoxy]phenyl}-2-oxopyridin-1(2H)-yl]-N-hydroxy-2-methyl-2-(methylsulfonyl)butanamide], the AB-3167 (MIC) in test [1] was determined as 32 µg/mL. In addition, the PA-7 (MIC) in test [2] was found to be 1 µg/mL. For the same compound, the EC-1 (MIC) in test [3] turned out to be 0.125 µg/mL.
For `C[C@@](CCn1ccc(-c2ccc(N3CCC(CO)CC3)cc2)cc1=O)(C(=O)NO)S(C)(=O)=O` [Example 61, (2R)-N-hydroxy-4-[4-{4-[4-(hydroxymethyl)piperidin-1-yl]phenyl}-2-oxopyridin-1(2H)-yl]-2-methyl-2-(methylsulfonyl)butanamide] the same measures were > 64 µg/mL, 2 µg/mL and 64 µg/mL.
Regarding `CO/N=C(\C)c1ccc(-c2ccn(CCC(C)(C(=O)NO)S(C)(=O)=O)c(=O)c2)cc1` (stereo not drawn) [Example 62, N-Hydroxy-4-[4-{4-[(1E)-N-methoxyethanimidoyl]phenyl}-2-oxopyridin-1(2H)-yl]-2-methyl-2-(methylsulfonyl)butanamide], the AB-3167 (MIC) in test [1] was > 64 µg/mL. In test [2], this compound gave a PA-7 (MIC) of 4 µg/mL. In addition, the EC-1 (MIC) in test [3] came to 0.5 µg/mL.
`Cc1cc(-c2ccn(CC[C@](C)(C(=O)NO)S(C)(=O)=O)c(=O)c2)ccc1-c1cc(CO)no1` [Example 63, N-Hydroxy-4-[4-{4-[3-(hydroxymethyl)isoxazol-5-yl]-3-methylphenyl}-2-oxopyridin-1(2H)-yl]-2-methyl-2-(methylsulfonyl)butanamide]: in test [1], the AB-3167 (MIC) is > 64 µg/mL. Also, the PA-7 (MIC) in test [2] amounted to 4 µg/mL. The compound also registered an EC-1 (MIC) in test [3] of 2 µg/mL.
In the case of `C[C@@](CCn1ccc(N2CC(c3ccccc3)C2)cc1=O)(C(=O)NO)S(C)(=O)=O` [Example 64, (2R)-N-Hydroxy-2-methyl-2-(methylsulfonyl)-4-[2-oxo-4-(3-phenylazetidin-1-yl)pyridin-1(2H)-yl]butanamide], the AB-3167 (MIC) in test [1] is > 64 µg/mL. The compound further returned a PA-7 (MIC) in test [2] of 8 µg/mL. For the same compound, the EC-1 (MIC) in test [3] worked out at 8 µg/mL.
`C[C@@](CCn1ccc(C#Cc2ccccc2)cc1=O)(C(=O)NO)S(C)(=O)=O` [Example 65, (2R)-N-Hydroxy-2-methyl-2-(methylsulfonyl)-4-[2-oxo-4-(phenylethynyl)pyridin-1(2H)-yl]butanamide] registered an AB-3167 (MIC) in test [1] of 64 µg/mL. For the same compound, the PA-7 (MIC) in test [2] amounted to 0.5 µg/mL. This compound also showed an EC-1 (MIC) in test [3] of 0.125 µg/mL.
As to `CC(CCn1ccc(OCCCC2CCCCC2)cc1=O)(C(=O)NO)S(C)(=O)=O` (stereo not drawn) [Example 66, 4-[4-(3-Cyclohexylpropoxy)-2-oxopyridin-1(2H)-yl]-N-hydroxy-2-methyl-2-(methylsulfonyl)butanamide], the AB-3167 (MIC) in test [1] was determined as 2 µg/mL. Further, in test [2], the PA-7 (MIC) stood at 8 µg/mL. Further, the EC-1 (MIC) in test [3] amounted to 1 µg/mL.

(Values after patent publication US8846933B2, “N-link hydroxamic acid derivatives useful as antibacterial agents” (Pfizer Inc., priority 2009, dated 2014).)
